Laboratory results taken from patent US9375438B2, “Inhibitors of NCCa-ATP channels for therapy” (University of Maryland, Baltimore, priority 2007, dated 2016).
“Also recorded” adds a separate entry of the source.

Columns and labels:
rats with percussion-TBI = test: Percussion-TBI model: extravasated blood in brain homogenates; assay type: in vivo, rat
From the text: Young adult male Long-Evans rats, 240-280 gm, were studied. Rats were anesthetized (Ketamine and Xylazine) and physiological parameters including temperature and blood gases were maintained within appropriate physiological ranges. With the head fixed in a stereotaxic frame, a 6-mm circular craniectomy was created abutting the sagittal and lambdoidal sutures. A posterior location was chosen to emphasize damage to underlying hippocampus (Vink et al., 2001; Floyd et al., 2002). […] Sham controls underwent craniectomy without percussion.

[1] = system: rats with hemi-cervical spinal cord contusion (SCI); test: SCI model: neurobehavioral assessment (inclined plane, paw placement, rearing); assay type: in vivo, rat
Protocol: (§1) SCI injury model. This study was performed in accordance with the guidelines of the Institutional Animal Care and Use Committee. Adult female Long-Evans rats (275-350 gm) were anesthetized (Ketamine, 60 mg/kg plus Xylazine, 7.5 mg/kg, i.p.). The dura at C4-5 was exposed via a left hemilaminectomy. A hemi-cervical spinal cord contusion was created using a blunt force impactor (1.3-mm impactor head driven by a 10 gm weight dropped vertically 25 mm) (Soblosky et al., 2001; Gensel et al., 2006). After SCI, animals were given 10 ml of glucose-free normal saline s.q. Rectal temperature was maintained at ˜37° C. using a servo-controlled warming blanket.
For in vivo gene suppression of SUR1, we used oligodeoxynucleotides that were phosphorothioated at 4 distal bonds to protect against endogenous nucleases (35).
Neurobehavioral Assessment. All measurements were performed by blinded evaluators. Performance on the inclined plane was evaluated as described (Rivlin and Tator, 1977). To assess paw placement and vertical exploration (rearing) (Nikulina et al., 2004) animals were videotaped while in a translucent cylinder (19×20 cm). Rearing was quantified as the number of seconds spent with both front paws elevated above shoulder-height during a 3-min period of observation.

[2] = system: rats with hemi-cervical spinal cord contusion (SCI); details: following SCI (Simard et al., 2007); cited from earlier work
[3] = rat, in vivo
Protocol: as §1, with “blanket. Blood gases and serum glucose 10-15 min post-SCI were: pO2, 95±6 mm Hg; pCO2, 46±3 mm Hg; pH, 7.33±0.01; glucose 258±17 mg/dl in controls and pO2, 96±7 mm Hg; pCO2, 45±2 mm Hg; pH, 7.37±0.01; glucose 242±14 mg/dl in glibenclamide-treated animals.” for “blanket.”
Drug delivery. […] During the course of the project, slightly different formulations of drug were used, with the best results obtained using stock solutions made by placing 50 mg (or 25 mg) of drug into 10 ml DMSO, and infusion solutions made by placing 400 μl (or 800 μl) stock into 4.6 ml (or 4.2 ml) unbuffered saline (0.9% NaCl) and adjusting the pH to ˜8.5 using 0.1 N NaOH.

[4] = system: recombinant MMP-2 and MMP-9; test: Zymography, gelatinase activity of recombinant MMP; assay type: biochemical; details: glibenclamide 10 μM; MMP-inhibitor II 300 nM
Protocol: Zymography of recombinant MMP-2 and MMP-9 (Sigma) was performed as described (Sumii and Lo, 2002).

[5] = 1, 3 and 7 d post-SCI, glibenclamide vs vehicle

Compound: COc1ccc(Cl)cc1C(=O)NCCc1ccc(S(=O)(=O)NC(=O)NC2CCCCC2)cc1 [glibenclamide]
- appearance of tissue homogenates (rats with percussion-TBI; 24 hr post-injury, vs vehicle): visibly less bloody
- increase in extravasated blood (rats with percussion-TBI; later times (6 and 24 hr) post-TBI, vs vehicle): prevented further increases in blood
- volume of blood in brain homogenate (rats with percussion-TBI; ½ hr post-injury, glibenclamide 200 ng/hr s.q. vs vehicle): did not affect
- performance on inclined plane [1, 5]: significantly better performance
- vertical exploratory behavior (rearing), performance [1, 5]: significantly better performance
- vertical exploratory behavior (rearing) ([1]; 1 d post-SCI, additional groups, 14-15 rats/group, 3-min observation): 42 ± 7 s
- ipsilateral paw placement ([1]; 1 d post-SCI, glibenclamide vs vehicle): significantly better performance
- mobility / exploratory behavior ([1]; post-SCI, vs vehicle-treated rats): typically ambulatory and often exhibited proficient exploratory behavior
- capillary fragmentation and progressive secondary hemorrhage [2]: essentially eliminates
- blood pH [3]: 7.37±0.01
- pCO2 [3]: 45±2 mm Hg
- pO2 [3]: 96±7 mm Hg
- serum glucose [3]: 242 ± 14 mg/dL
- gelatinase activity of recombinant MMP [4]: the same; also recorded: not affected
